Source: patent publication US8367720B2 (Panorama Research Inc., priority 2007, dated 2013)
Read-outs that look alike come from different tables or passages of the source.

Tests used:
[1] = tested on: extracellular protease of Pseudomonas aeruginosa; test: Measurement of extracellular protease; assay type: cell-based; details: azo-casein, A440; Andro, AL-1 1 mM; Chuanhuning, Yanhuning, Lianbizhi 10 mM (FIG. 4)
Description: Pseudomonas aeruginosa was inoculated in LB liquid, and cultured at a constant temperature of 37° C. in a shaker overnight. […] After the bacterial liquids were cultured simultaneously at 37° C. for 6 h and centrifuged, supernatant 100 μL was taken, azo-casein 5 mg was added, […] and CaCl2 10 mM were added, and then they were shaken for reaction at 37° C. for 6 h, and the reaction was terminated by adding EDTA-Na. The A440 values of the supernatants were measured (Zielinshi et al., Biol. Chem. 1991, 266, 9754-9763; May et al., Clin. Microbiology Rev. 1991, 4, 191-206).

macrophages = details: read-out: IC50, inhibition of cell division (C5α induced, macrophages); cited from earlier work
Pseudomonas aeruginosa [2] = test: Measurement of growth curve of Pseudomonas aeruginosa; assay type: cell-based; details: 1 mM (FIG. 2)
Description: Pseudomonas aeruginosa was inoculated in LB medium, and cultured at a constant temperature of 37° C. in a shaker overnight.

MCF-7 breast cancer = details: 100 mg/kg, mice, hollow fiber system; cited from earlier work
Pseudomonas aeruginosa [3] = test: Inhibition zone test (holing method); assay type: cell-based; details: 37° C., 24 h; compounds 0.05 mg/well, gentamicin 0.10 mg/well
Description: (§1) After being cultured at 37° C. for 24 h, the sizes of inhibition zones were measured.

E. coli = test: Inhibition zone test (holing method); assay type: cell-based; details: 37° C., 24 h; compounds 0.05 mg/well, gentamicin 0.10 mg/well
Description: as §1

Bacillus subtilis = test: Inhibition zone test (holing method); assay type: cell-based; details: 37° C., 24 h; compounds 0.05 mg/well, streptomycin 0.15 mg/well
Description: as §1

[4] = tested on: Staphylococcus aureus MRSA 5676; test: Inhibition zone test (holing method); assay type: cell-based; details: 37° C., 24 h; compounds 0.05 mg/well, vancomycin 0.15 mg/well
Description: as §1

[5] = tested on: Staphylococcus aureus MRSA 5677; test: Inhibition zone test (holing method); assay type: cell-based; details: 37° C., 24 h; compounds 0.05 mg/well, vancomycin 0.15 mg/well
Description: as §1

Candida albicans = test: Inhibition zone test (holing method); assay type: cell-based; details: 37° C., 24 h; compounds 0.05 mg/well, nysfungin 0.10 mg/well
Description: as §1

[6] = tested on: Staphylococcus aureus wild type; test: Inhibition zone test (holing method); assay type: cell-based; details: 37° C., 24 h; compounds 0.05 mg/well, streptomycin 0.15 mg/well
Description: as §1

HT-29 human colon cancer = details: orally 200 mg/kg, twice per day; cited from earlier work
B16F0 melanoma = details: orally 200 mg/kg, twice per day; cited from earlier work
L1210 leukemia cells = test: In vitro antitumor activity to L1210 leukemia cells (MTT); assay type: cell-based; details: for IC50: Mus musculus
Description: The cells were cultured in an incubator at 37° C., 5% CO2 and saturated humidity for 48 h. Then 5 mg/mL MTT (20 μL/well) was added and cultured at the same conditions for 4 h, DMSO (150 μL/well) was added, and the (570/630 nm) absorbance (A values) was measured by using micro-plate reader.

[7] = tested on: secretion of pyocyanin by Pseudomonas aeruginosa; test: Measurement of pyocyanin; assay type: cell-based; details: 18 h culture, A520; Andro, AL-1 1 mM; Chuanhuning, Yanhuning, Lianbizhi 10 mM (FIG. 3)
Description: Pseudomonas aeruginosa was inoculated in LB medium, then cultured at a constant temperature of 37° C. in a shaker overnight. […] The supernatant was taken and extracted in turn with chloroform and 0.2 N HCl, and A520 values were measured (Zielinshi et al., Biol. Chem. 1991, 266, 9754-9763; May et al., Clin. Microbiology Rev. 1991, 4, 191-206).

MRSA5676 = test: Test of minimal inhibitory concentration (MIC); assay type: cell-based, Staphylococcus aureus; details: two-fold dilution, 37° C., 24 h, absorbance 595 nm
[8] = tested on: Staphylococcus aureus wild type; test: Test of minimal inhibitory concentration (MIC); assay type: cell-based; details: two-fold dilution, 37° C., 24 h, absorbance 595 nm
[9] = tested on: suspended Pseudomonas aeruginosa; test: Experiment of combination with antibiotics; assay type: cell-based; details: Pseudomonas aeruginosa cultured 15 h, OD600; ciprofloxacin 0.017 μg/mL, erythromycin 3.75 μg/mL, Andro 350 μg/mL, AL-1 538 μg/mL (1 μmol/mL)
[10] = tested on: BF of Pseudomonas aeruginosa; test: Scanning electron microscopy (SEM) experiment, biofilm (BF) formation; assay type: cell-based; details: 1 mM; early BF 3rd day, mature BF 7th day (FIG. 6, 7)
Description: Pseudomonas aeruginosa was inoculated in LB liquid, and cultured at a constant temperature of 37° C. in a shaker overnight, and the bacterial liquid was centrifuged, washed with sterile physiological saline twice, and mixed with physiological saline to form a bacterial suspension having a turbidity of 0.5 McFarland Standard (bacterial number was about 5×10^8-9 CFU/mL). The bacterial suspension was diluted with physiological saline 50-times. A biofilm (BF) carrier was placed in a tube containing 2 mL of the bacterial liquid, and the culturing was conducted at 37° C. […] Medium was replaced every other two days. The formation of BF was observed by using Quanta 400 thermal field emission scanning electron microscope (FEI Company). The carrier adhered with BF was washed with sterile physiological saline to remove floating bacteria, fixed with 2.5% glutaral, immersed in pH 7.4 PBS for three times, dewatered in turn with 50%, 70%, 80% and 90% ethanol once, then dewatered with 100% ethanol twice and with tert-butanol twice, 5 min for each time, and lyophilized for 5 h. The surface of carrier was plated with gold under vacuum.

MRSA5677 = test: Test of minimal inhibitory concentration (MIC); assay type: cell-based, Staphylococcus aureus; details: two-fold dilution, 37° C., 24 h, absorbance 595 nm
[11] = tested on: rats with STZ-induced diabetes mellitus; test: Therapeutical effects on STZ-induced diabetes mellitus in rats
Description: 30 Female SD rats, 180-220 g, fasted for 16 h, were subjected to intraperitoneal injection of 60 mg/kg of STZ (purchased from Sigma Company). After 72 h, blood samples were collected from the rats by cutting their tails after fasting 16 h, and blood glucose values were measured by using a blood glucose analyzer (Johnson & Johnson Company). […] Animals were weighed, orbital bleeded, and the sera were separated. According to the instructions of kit (Zhejiang Dongou Biotechnology Co., Ltd.), the contents of triglyceride and total cholesterol were measured. […] The rats of vehicle group were treated with an equivalent volume of solvent (20% DMSO in H2O). After being fasted for 16 h, the rats were weighed, and bleeded for the measurement of blood glucose, triglyceride and total cholesterol. The obtained data were processed by using one-factor analysis of variance (One-way ANOVA) followed by Student's t-test.

L1210 cells = assay type: cell-based; details: 10 μM, after 12 h
Description: The cells were cultured in an incubator at 37° C., 5% CO2 and saturated humidity. The culture medium was removed, the cells were washed with PBS twice, fixed at −20° C. overnight. Then the cells were centrifuged again, washed with PBS to remove ethanol, cultured with RNase A (200 μg/mL, Sigma) at 37° C. for 1 h, stained with PI (50 μg/mL, Sigma) in dark for 30 min, and detected by using a flow cytometer.

Pseudomonas aeruginosa [12] = test: Atomic force microscope (AFM) experiment; assay type: cell-based; details: 1 mM, 15 h contact (FIG. 5)
Description: Pseudomonas aeruginosa was inoculated in LB liquid, shaken and cultured at a constant temperature of 37° C. overnight, and the bacterial liquid was centrifuged, washed with sterile physiological saline twice, and mixed with physiological saline to form a bacterial suspension having a turbidity of 0.5 McFarland Standard (bacterial number was about 5×10^8-9 CFU/mL). The bacterial suspension was diluted with physiological saline 50-times. […] After contacting with medicines for 15 h, 1 mL culture solution was added in a sterile centrifuge tube and centrifuged at 10,000×g for 5 min. The supernatant liquid was discarded, and the obtained bacterial sample was washed with double distilled water twice, and suspended in double distilled water. A small volume of Pseudomonas aeruginosa suspension was taken and dropped on a cover slip carefully. After water was dried under atmospheric condition, the bacteria were observed by CP-Research type atom force microscope (U.S.A., Thermomicroscopes Co.) ([…] et al., Antimicro. Chemother. 1994, 34, 679-685; […] et al., Antimicro. Agents Chemother. 2000, 44, 682-687; Nickel et al., Urology 1986, 135, 586-588).

| SMILES | inhibition of the production/activity of extracellular protease [1] | inhibition of the growth of Pseudomonas aeruginosa (growth curve, A600) (Pseudomonas aeruginosa [2]) | Inhibition zone diameter, Pseudomonas aeruginosa (Pseudomonas aeruginosa [3]) | Inhibition zone diameter, E. coli (E. coli) | Inhibition zone diameter, Bacillus Subtilis (Bacillus subtilis) | Inhibition zone diameter, Staphylococcus aureus MRSA 5676 [4] | Inhibition zone diameter, Staphylococcus aureus MRSA 5677 [5] | Inhibition zone diameter, Candida albicans (Candida albicans) | Inhibition zone diameter, Staphylococcus aureus Wild type [6] | inhibition of the secretion of pyocyanin [7] | also measured |
| --- | --- | --- | --- | --- | --- | --- | --- | --- | --- | --- | --- |
| C=C1CCC2[C@@](C)(CC[C@@H](O)[C@@]2(C)CO)C1C/C=C1/C(=O)OCC1O (stereo partly drawn) [Andro, Andrographolide] | AL-1>ANO>Andro | weak antibacterial activity | ^b (incompetence (inhibition zone diameter <4 mm)) | ^b (incompetence (inhibition zone diameter <4 mm)) | ^b (incompetence (inhibition zone diameter <4 mm)) | ^b (incompetence (inhibition zone diameter <4 mm)) | ^b (incompetence (inhibition zone diameter <4 mm)) | ^b (incompetence (inhibition zone diameter <4 mm)) | ^b (incompetence (inhibition zone diameter <4 mm)) | AL-1>Andro>ANO | IC50 (macrophages): 5.6 ± 0.7 µM; inhibition of growth (MCF-7 breast cancer): about 50%; inhibition of growth of colon cancer (HT-29 human colon cancer): 52%; inhibition of growth of melanoma (B16F0 melanoma): 39%; IC50 (L1210 leukemia cells; L1210, 48 h): 28.7 ± 6.19 µM |
| C=C1CCC2[C@](C)(CO)[C@H](O)CC[C@@]2(C)[C@@H]1C/C=C1/C(=O)OCC1OC(=O)CCCCC1CCSS1 (stereo partly drawn) [AL-1, 14-lipoyl-3,19-dihydroxy-andrographolide] | AL-1>ANO>Andro | significantly inhibited the growth of bacteria | ^b (incompetence (inhibition zone diameter <4 mm)) | ^b (incompetence (inhibition zone diameter <4 mm)) | ^b (incompetence (inhibition zone diameter <4 mm)) | 6.9 ± 0.80 mm | 4.1 ± 0.77 mm | ^b (incompetence (inhibition zone diameter <4 mm)) | 4.9 ± 0.81 mm | AL-1>Andro>ANO | MIC, MRSA5676 (MRSA5676): 1000; MIC, Wild type [8]: 1000; Survival Rate [9]: 84%; cytotoxicity relative to andrographolide (L1210 leukemia cells; L1210 cells): 3 times; IC50 (L1210 leukemia cells; L1210 cells, 48 h, MTT, read-out: IC50): 8.04 ± 1.92 µM; formation of early and mature BF of Pseudomonas aeruginosa under SEM [10]: able to destroy the BF of Pseudomonas aeruginosa; MIC, MRSA5677 (MRSA5677): 1000; reduction of blood glucose level ([11]; AL-1 160 mg/kg, 7 days): about 66%; Blood glucose ([11]; Day 0, before treatment): 19.53 ± 1.90 mmol/L; Body weight ([11]; Day 0, before treatment): 214.33 ± 9.81 g; Total cholesterol ([11]; Day 0, before treatment): 3.39 ± 0.59 mmol/L; Total triglyceride ([11]; Day 0, before treatment): 6.28 ± 0.78 mmol/L; effect on cell cycle / apoptosis of L1210 cells (L1210 cells): arrest L1210 cells at G1 prophase; growth morphology of Pseudomonas aeruginosa under AFM (Pseudomonas aeruginosa [12]): did not form a confertim bacterial colony |
